This is an account of results in US20260146045A1, “COMPOSITIONS AND USES THEREOF” (Solve Therapeutics, Inc., priority 2022, published 2026).

The EC50 is the concentration at which the effect is half-maximal.

For the test, the system named is SKBR3, a breast cancer cell line. Description: in vitro cytotoxicity assay (CellTiter-Glo viability). In kind it is cell-based. The settings on record: Homo sapiens, SK-BR-3, SKBR3 cells, 72 hours at 37° C., luminometer. The procedure: The ability of compounds to inhibit cell growth was measured using in vitro cytotoxicity assay.
Cells were cultured in log phase growth and split into 96-well plates. Each cell-line was plated at a slightly different concentration but ranged from 5×10^3 to 50x 10+ cells/well. Cells, in duplicate, were incubated with 3-fold serial dilution of a particular immunoconjugate starting at 3000 or 1000 nanomolar (3000, 1000, 333, 111, 37, 12.3, 4.1, 1.37, 0.46, 0.15 nanomolar) for 72 hours at 37° C. and 5% CO2. After treatment the cells were incubated with an equal volume of CellTiter-Glo® reagent (Promega Inc.) for 15 minutes at room temperature, and viability was determined by a luminometer.
Background: In ATP-based viability assays light output follows the ATP content of the culture.
The molecule `CC[C@@]1(O)C(=O)OCc2c1cc1n(c2=O)Cc2c-1nc1cc(F)ccc1c2CNC(=O)CN` [Compound 7] had an EC50 of 0.089 µM.
In the case of `CC[C@@]1(O)C(=O)OCc2c1cc1n(c2=O)Cc2c-1nc1cc(F)ccc1c2CNC(=O)CO` [Compound 8] it was 0.0056 µM.
In the case of `CC[C@@]1(O)C(=O)OCc2c1cc1n(c2=O)Cc2c-1nc1ccc(O)cc1c2CNC(=O)CN` [Compound 13] it was 1.05 µM.
In the case of `CC[C@@]1(O)C(=O)OCc2c1cc1n(c2=O)Cc2c-1nc1ccc(O)cc1c2CNC(=O)CO` [Compound 14] it was 0.516 µM.
